Results: patent US12473310B2, “Vitamin D3 phosphate and pharmaceutically acceptable salts thereof, pharmaceutical compositions comprising the compound and methods for preparing the compound” (King's College London, priority 2020, dated 2025)

Experiments:
[1] = solubility in donor solution and thermodynamic activity (Table 4); assay type: physicochemical; settings: PG
[2] = patch pre-formulation, saturated concentration in adhesive; assay type: physicochemical; settings: DURO-TAK 87-2051 adhesive
Protocol: To each solution, 175 μL of the transdermal adhesive DURO-TAK 87-2051 (51.5 w/v %) was added, and vortexed. Then 2.0 μL of α-tocopherol and 2.5 μL of diethylene glycol monoethyl ether were added and vortexed. The visual solubility was assessed.
To this solution 4 mg of α-tocopherol in 3 mL ethyl acetate was added and 167 μL of the transdermal adhesive DURO-TAK 87-2051 (51.5 w/v %) in 7 mL ethyl acetate with 6 μL diethylene glycol monoethyl ether was also added.
Each solution (3×3 cm) was cast onto the backing (3M™ Scotchpak™ Polyester Backing Film Laminate 9730, UK) to determine the clarity, and the saturation limit of the test agents in the adhesive mixtures.

physchem = assay type: physicochemical; settings: % Recovery
Protocol: To validate the method of test agent recovery from the skin, solutions (1.0 mg/mL) of each vitamin D analogue were prepared in 100% PG. The precise concentrations in these samples were analysed by HPLC method described above. To assess the chemical stability of each test agent in the donor solutions used in the Franz cell experiments, 1.0 mg/mL of the samples prepared in 100% PG were incubated in a water bath at 37° C. for 24 h. In addition, to understand the chemical stability of each test agent in the extraction solvents used in the skin deposition studies, 1 mL of the drug sample in 100% PG was added into 10 mL of extraction fluid (MeOH for cholecalciferol, cholecalciferol phosphate acid, and MeOH:water, 90:10 for cholecalciferol phosphate disodium salt). Samples in PG (n=3) and samples in PG with the extraction fluid (n=3) were left in the water bath overnight at 37° C. and the sample concentration was analysed by the HPLC method described above. To assess whether the HPLC fluid had been impacted by any proteins that had leaked out of the skin, PG:water, 80:20 was added to donor and receiver chambers of porcine skin loaded Franz cells (n=3). A 5 mL sample of the receiver fluid was collected, and 25 μL of each test solution was added to this fluid and diluted to MeOH (1:1) and analysed by the HPLC method described previously. To verify the percentage of drug that could be recovered from the skin tissue, the skin sections were dermatomed (1 mm thickness) (n=3). The test solutions were spiked (50 μL) into a sample bottle containing the chopped dermatomed skin tissue. The samples containing the spiked drugs were left for 1 h for the drugs to absorb into the tissues. After the 1 h incubation period, 5 mL of extraction fluid (MeOH for cholecalciferol, cholecalciferol phosphate acid, and MeOH:water, 90:10 for cholecalciferol phosphate disodium salt) was added into each piece of the dermatomed skin tissue, then incubated in a shaking water bath for 1 h. The solutions were then tissue lysed by a tissue lyser for 40 min and homogenised by Ultra Turrax for 1 min and filtered using 0.45 μm syringe filters, centrifuged for 10 min at 13,000 rpm, and analysed by the HPLC method described above. In terms of cholecalciferol phosphate acid, after 1 h incubation and adding 5 mL extraction fluid, immediately the solutions with skin tissues were tissue lysed by a tissue lyser for 15 min. The solutions were then centrifuged for 10 min at 13,000 rpm and the supernatants were analysed by the HPLC method described above.

[3] = skin permeation and deposition, automated Franz diffusion cell (Example 5); assay type: in vitro ADME; settings: PG formulation
Protocol: For the final formulation, 61.5 mg of cholecalciferol phosphate acid in 4.1 mL hexane was added into 1.435 mL DURO-TAK 87-2051 (51.5 w/v %) with 16.4 μL α-tocopherol and 20.5 μL diethylene glycol monoethyl ether. Likewise, 120 mg of cholecalciferol phosphate disodium salt in 35.2 mL MeOH:water (10:1) was added to 1.336 mL of DURO-TAK 87-2051 (51.5 w/v %) in 56 mL ethyl acetate with 32 mg of α-tocopherol and 48 μL diethylene glycol monoethyl ether. Each formulation was spread evenly on the 10×10 cm patch tray and left overnight to dry completely. Following the complete drying of the solvents, the adhesive layer was covered by the M3 Release layer (SCOTCHPAK 9755, UK), compressed, and then cut using a 34 mm circular manual die cutter (SCP Super Cutting Press, UK).
Subsequently, 1 mL aliquots were applied to the skin.
The automated Franz diffusion cell was used to investigate the permeation of cholecalciferol, cholecalciferol phosphate salt and cholecalciferol phosphate acid through porcine skin. Fresh white adult porcine ears were obtained from a local butcher (Ginger Pig, UK). Any damaged ears were discarded. The ears were removed from the carcass after hair removal. […] The collected receiver fluid was analysed by HPLC methods described previously.
At the end of the transport studies, the Franz cells were dismantled, and the donor solution was collected into bottles containing 10 mL of extraction fluid; MeOH for cholecalciferol, cholecalciferol phosphate acid and MeOH:water (90:10) for cholecalciferol phosphate salt, by wiping the surface of the skin and the inside of the donor compartment with two wet and then two dry cotton buds. […] Each collection was analysed by the HPLC method described above. Thus, the amount of each test agent on the surface of the skin, deposited in the skin, and passed into the receiver fluid was determined so that % mass recovery per cm^2 per skin could be calculated and drug deposition profiles could be obtained.

[4] = chemical stability on storage over 4 weeks; assay type: physicochemical
Protocol: The chemical stability of cholecalciferol phosphate acid/disodium salt was assessed in three different conditions over a 4-week period. Aliquots of 2 mg for each sample was stored at room temperature, 4° C., and −20° C. in a glass bottle covered with foil. A 20 mL sample of MeOH and MeOH:water (90:10) was added to cholecalciferol phosphate acid and cholecalciferol phosphate disodium salt, and the concentration and purity were assessed every week by the HPLC method described previously. The peak area was used to calculate sample concentration and the gradient of the data points being used to calculate the degradation rate.

## C=C1CC[C@H](OP(=O)(O)O)C/C1=C/C=C1\CCC[C@@]2(C)C1CC[C@@H]2[C@H](C)CCCC(C)C (stereo in doubt) [Cholecalciferol phosphate acid, cholecalciferol phosphate acid]
[1]
  Solubility in PG: 4.69 mg/mL
[2]
  saturated concentration in patch formulation (highest loading without precipitation): 5.02 w/w %
physchem; chemical stability with extraction fluid
  recovery at 0.091 mg/mL: 92.2 ± 2.26%
physchem; chemical stability without extraction fluid
  recovery at 24 h, 1 mg/mL: 88.5 ± 3.35%
[3]
  fold higher transdermal permeation through the skin compared to cholecalciferol: about 9.34 fold
[4]; 4° C.
  loss of the original compound over 4 weeks: 9.98%
  reduction of purity over 4 weeks: 27.18%
[4]; room temperature
  loss of the original compound over 4 weeks: 77.15%
  reduction of purity over 4 weeks: 72.2%
[4]; −20° C.
  reduction of purity over 4 weeks: 1.03%
